In ChEMBL document CHEMBL1129914, “Synthesis and inhibitory effect of a sialyl lewis X-acrylamide homopolymer at preventing cell adhesion” (Bioorg Med Chem Lett, 1997):

Key:
Mus musculus = assay: Tested in vivo for the inhibition of LTA -induced neutrophil accumulation into pleural cavity of mice at a dose of 30 mg/kg; format: functional
E-selectin = target: T1, E-selectin (Homo sapiens, UniProt P16581); assay: Tested in vitro to inhibit cell adhesion of HL-60 cells to recombinant human soluble Selectin E; format: cell-based
T1 sequence (P16581 whole entry): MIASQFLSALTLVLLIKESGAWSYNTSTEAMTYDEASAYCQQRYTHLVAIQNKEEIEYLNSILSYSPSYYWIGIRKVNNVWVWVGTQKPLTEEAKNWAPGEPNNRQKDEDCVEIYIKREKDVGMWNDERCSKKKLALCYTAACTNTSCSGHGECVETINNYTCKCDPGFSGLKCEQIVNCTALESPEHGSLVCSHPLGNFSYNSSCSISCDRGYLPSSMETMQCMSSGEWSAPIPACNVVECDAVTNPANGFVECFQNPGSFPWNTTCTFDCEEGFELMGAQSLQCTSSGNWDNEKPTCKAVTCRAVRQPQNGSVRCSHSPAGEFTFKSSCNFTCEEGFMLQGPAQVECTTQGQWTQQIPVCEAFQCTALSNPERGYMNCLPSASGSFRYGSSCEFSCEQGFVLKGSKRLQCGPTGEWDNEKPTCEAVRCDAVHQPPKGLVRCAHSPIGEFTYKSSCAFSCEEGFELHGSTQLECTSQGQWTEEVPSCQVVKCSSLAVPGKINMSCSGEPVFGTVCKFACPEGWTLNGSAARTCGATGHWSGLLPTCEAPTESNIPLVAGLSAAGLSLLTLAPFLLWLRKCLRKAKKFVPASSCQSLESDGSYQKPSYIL

Row | SMILES | inhibition in vivo at 30 mg/kg (Mus musculus) | IC50 (E-selectin)
1 | CCO[C@@H]1O[C@@H](CO)[C@@H](O[C@@H]2O[C@@H](CO)[C@H](O)[C@H](O[C@]3(C(=O)O)C[C@@H](O)[C@@H](NC(C)=O)[C@H]([C@H](O)[C@H](O)CO)O3)[C@@H]2O)[C@H](O[C@@H]2O[C@@H](C)[C@@H](O)[C@H](O)[C@@H]2O)[C@@H]1NC(C)=O | 38% | 1500 µg/mL
2 | C=CC(=O)NCCCCCCO[C@@H]1O[C@@H](CO)[C@@H](O[C@@H]2O[C@@H](CO)[C@H](O)[C@H](O[C@]3(C(=O)[O-])C[C@@H](O)[C@@H](NC(C)=O)[C@H]([C@H](O)[C@H](O)CO)O3)[C@@H]2O)[C@H](O[C@@H]2O[C@@H](C)[C@@H](O)[C@H](O)[C@@H]2O)[C@@H]1NC(=O)c1ccc2ccccc2c1.[Na+] | 35% | 100 µg/mL
